Data taken from ChEMBL document CHEMBL1201862, “PubChem BioAssay data set” (2004).
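Five concentrations, 48 hours, 96-well plates. Abbreviation: GI50, concentration required for 50% inhibition of growth.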 Active and inactive are the calls of the source. Cut-off read from the data, not from the text of the source: active = GI50 up to about 1.1 µM and inactive = higher.

What was measured:
Experiment in all cases: NCI tumour cell line growth inhibition, 48 h
[1] = test system: CCRF-CEM
[2] = test system: IGROV-1
[3] = test system: OVCAR-8
[4] = test system: A498
[5] = test system: M14
[6] = test system: NCI-H23
[7] = test system: OVCAR-4
[8] = test system: XF498
[9] = test system: HL-60
[10] = test system: KM12
[11] = test system: SW-620
[12] = test system: HOP-62
[13] = test system: ACHN
[14] = test system: OVCAR-5
[15] = test system: TK-10
[16] = test system: PC-3
[17] = test system: Hs-578T
[18] = test system: BT-549
[19] = test system: MDA-MB-435
[20] = test system: HCT-15

Row | Compound | GI50 [1] | GI50 [2] | GI50 [3] | GI50 [4] | GI50 [5] | GI50 [6] | GI50 [7] | GI50 [8] | GI50 [9] | GI50 [10] | GI50 [11] | GI50 [12] | GI50 [13] | GI50 [14] | GI50 [15] | GI50 [16] | GI50 [17] | GI50 [18] | GI50 [19] | GI50 [20]
1 | COc1ccccc1NC(=O)C1=C(C)NC(C)=C(C(=O)Nc2ccccc2OC)C1c1ccc(N(C)C)cc1 | 19.3 µM (inactive) | 33.4 µM (inactive) | 24 µM (inactive) | 32.8 µM (inactive) | 22.5 µM (inactive) | 21.3 µM (inactive) | 29.6 µM (inactive) | 12.1 µM (inactive) | 15.8 µM (inactive) | 21.6 µM (inactive) | 36.3 µM (inactive) | 22.3 µM (inactive) | 33 µM (inactive) | 39.2 µM (inactive) | 34.8 µM (inactive) | – | – | – | – | –
2 | O=[N+]([O-])c1cccc2nc3ccccc3c(NCCO)c12 | 0.00989 µM (active) | 0.00269 µM (active) | – | 0.00383 µM (active) | 0.000243 µM (active) | 0.00194 µM (active) | 0.000719 µM (active) | 0.00135 µM (active) | 0.00325 µM (active) | 0.00366 µM (active) | 0.00118 µM (active) | 0.000539 µM (active) | 0.00151 µM (active) | 0.00219 µM (active) | 0.00269 µM (active) | 0.00378 µM (active) | 0.00684 µM (active) | 0.00514 µM (active) | 0.00179 µM (active) | 0.00133 µM
3 | O=C(C(O)c1cn(Cc2ccccc2)c2ccccc12)N1CCCCC1 (stereo unspecified) | 67.1 µM (inactive) | 30.4 µM (inactive) | > 100 µM (inactive) | > 100 µM (inactive) | > 100 µM (inactive) | > 10 µM (inactive) | – | 93.1 µM (inactive) | > 100 µM (inactive) | > 100 µM (inactive) | > 100 µM (inactive) | > 100 µM (inactive) | 53.5 µM (inactive) | > 100 µM (inactive) | > 10 µM (inactive) | – | – | – | – | 76.4 µM
4 | CC(=O)NNc1nc(C)c(C(=O)NNC(=O)C(=O)Nc2c(C)cccc2C(C)C)s1 | 34.5 µM (inactive) | > 100 µM (inactive) | 94.2 µM (inactive) | 51.4 µM (inactive) | > 100 µM (inactive) | > 100 µM (inactive) | 32.8 µM (inactive) | > 100 µM (inactive) | 46.7 µM (inactive) | 95.7 µM (inactive) | 55.3 µM (inactive) | > 100 µM (inactive) | 60.1 µM (inactive) | > 100 µM (inactive) | > 100 µM (inactive) | – | – | – | – | 60.3 µM
5 | NC(=O)N/N=C/C(/C=N/NC(N)=O)[N+](=O)[O-] | > 100 µM (inactive) | > 100 µM (inactive) | – | > 100 µM (inactive) | > 100 µM (inactive) | > 100 µM (inactive) | > 100 µM (inactive) | > 100 µM (inactive) | > 100 µM (inactive) | > 100 µM (inactive) | > 100 µM (inactive) | > 100 µM (inactive) | > 100 µM (inactive) | > 100 µM (inactive) | > 100 µM (inactive) | – | – | – | – | –
6 | Cc1ccccc1NC(=O)c1c(C)oc2c1C(=O)c1ccccc1C2=O | 19.4 µM (inactive) | > 71.9 µM (inactive) | 41.5 µM (inactive) | 63.5 µM (inactive) | 20.9 µM (inactive) | 29.7 µM (inactive) | 2.09 µM (inactive) | 32.2 µM (inactive) | 19.8 µM (inactive) | 30.9 µM (inactive) | 19.7 µM (inactive) | > 56.1 µM (inactive) | 36.9 µM (inactive) | > 100 µM (inactive) | > 100 µM (inactive) | – | – | – | – | 32.1 µM
7 | CC(=O)OC1COC(N2C(=O)/C(=N\NC(N)=S)c3cc(Br)ccc32)C(OC(C)=O)C1OC(C)=O (stereo unspecified) | 5.77 µM (inactive) | > 100 µM (inactive) | 49.1 µM (inactive) | – | > 100 µM (inactive) | 67.9 µM (inactive) | 42.6 µM (inactive) | 37.1 µM (inactive) | 25.6 µM (inactive) | 39.4 µM (inactive) | 77.8 µM (inactive) | 98.6 µM (inactive) | 60.3 µM (inactive) | > 100 µM (inactive) | > 100 µM (inactive) | – | – | – | – | 61.9 µM
8 | COC(=O)C1=CO[C@@H](OC2CC(CO)C(O)C(O)C2O)[C@@H]2[C@@H](C)[C@@H](OC(=O)/C=C/c3ccccc3)[C@@H](O)[C@H]12.COC(=O)C1=CO[C@@H](OC2CC(CO)C(O)C(O)C2O)[C@@H]2[C@@H](C)[C@@H](OC(=O)c3ccccc3)[C@@H](O)[C@H]12 (stereo partly specified) | > 100 µM (inactive) | > 100 µM (inactive) | > 100 µM (inactive) | > 100 µM (inactive) | > 100 µM (inactive) | > 100 µM (inactive) | > 100 µM (inactive) | > 100 µM (inactive) | > 100 µM (inactive) | > 100 µM (inactive) | > 100 µM (inactive) | > 100 µM (inactive) | > 100 µM (inactive) | > 100 µM (inactive) | > 100 µM (inactive) | – | – | – | – | –
9 | N=C(N)SCc1cccc([N+](=O)[O-])c1 | 27.7 µM (inactive) | 57.7 µM (inactive) | 26.2 µM (inactive) | 25.1 µM (inactive) | – | 30.5 µM (inactive) | 30.3 µM (inactive) | 25.1 µM (inactive) | 18.8 µM (inactive) | 24.4 µM (inactive) | 36.6 µM (inactive) | 26.7 µM (inactive) | – | 48.2 µM (inactive) | – | – | – | – | – | 34.5 µM
10 | CCNCC(=O)O[C@]1(CC)C(=O)OCc2c1cc1n(c2=O)Cc2cc3ccccc3nc2-1 | 0.0142 µM (active) | 2.2 µM (inactive) | 0.27 µM (active) | 0.661 µM (active) | 0.163 µM (active) | 0.0849 µM (active) | 2.25 µM (inactive) | 0.364 µM (active) | 0.056 µM (active) | 0.778 µM (active) | 0.434 µM (active) | 0.0275 µM (active) | 0.0441 µM (active) | 0.811 µM (active) | 7.4 µM (inactive) | 0.741 µM (active) | 25.8 µM (inactive) | 1.05 µM (active) | 1.36 µM (inactive) | 1.85 µM
11 | CC(=O)Oc1cc2c(cc1OC(C)=O)OCC(c1ccc(C)cc1)C2 (stereo unspecified) | 4.07 µM (inactive) | 20.3 µM (inactive) | 26.8 µM (inactive) | 8.69 µM (inactive) | – | 15.9 µM (inactive) | 13 µM (inactive) | 15.4 µM (inactive) | 2.61 µM (inactive) | 21.6 µM (inactive) | 19.5 µM (inactive) | 20.5 µM (inactive) | – | 33.5 µM (inactive) | – | – | – | – | – | 19.6 µM
12 | CCCNC1=C(C(=O)OCC)C(=O)CO1 | > 100 µM (inactive) | > 100 µM (inactive) | > 100 µM (inactive) | > 100 µM (inactive) | > 100 µM (inactive) | > 100 µM (inactive) | > 100 µM (inactive) | > 100 µM (inactive) | > 100 µM (inactive) | – | > 100 µM (inactive) | – | > 100 µM (inactive) | > 100 µM (inactive) | > 100 µM (inactive) | – | – | – | – | > 100 µM
13 | O=C1NC(=S)NC(=O)C1=CC1CC1 | > 100 µM (inactive) | > 100 µM (inactive) | > 100 µM (inactive) | > 100 µM (inactive) | > 100 µM (inactive) | > 100 µM (inactive) | > 100 µM (inactive) | > 100 µM (inactive) | > 100 µM (inactive) | > 100 µM (inactive) | > 100 µM (inactive) | > 100 µM (inactive) | > 100 µM (inactive) | > 100 µM (inactive) | > 100 µM (inactive) | – | – | – | – | > 100 µM
14 | CCOC(=O)C1=C(OC(OCC)C(C)[Se]c2ccccc2)CCC1 (stereo unspecified) | 16.5 µM (inactive) | 26.4 µM (inactive) | 16 µM (inactive) | > 100 µM (inactive) | 20.5 µM (inactive) | 12.4 µM (inactive) | 18 µM (inactive) | 16.1 µM (inactive) | 4.16 µM (inactive) | 59 µM (inactive) | – | 64.6 µM (inactive) | 26.9 µM (inactive) | 51.2 µM (inactive) | > 100 µM (inactive) | – | – | – | – | 17.5 µM
15 | CC(=O)OC1CC2C(C)(C)C(=O)C=C[C@]2(C)C2CCC3(C)C(=CC(=O)C3c3ccoc3)[C@]12C (stereo partly specified) | 8.47 µM (inactive) | 16.6 µM (inactive) | 16.7 µM (inactive) | 16.9 µM (inactive) | 21 µM (inactive) | 12.7 µM (inactive) | 18.4 µM (inactive) | 25.8 µM (inactive) | 14.3 µM (inactive) | 11.9 µM (inactive) | 10.5 µM (inactive) | 16.3 µM (inactive) | 16.2 µM (inactive) | 22.4 µM (inactive) | 15.7 µM (inactive) | – | – | – | – | 11.7 µM
16 | c1cc2c3c(c1)c1cc4c(cc1c[n+]3CC2)OCO4 [ANHYDROLYCORINIUM CHLORIDE] | 3.35 µM (inactive) | 4.02 µM (inactive) | 1.33 µM (inactive) | 2.37 µM (inactive) | – | 3.59 µM (inactive) | 0.383 µM (active) | 4.14 µM (inactive) | 6.3 µM (inactive) | 0.582 µM (active) | 1.9 µM (inactive) | 3.83 µM (inactive) | – | 2.85 µM (inactive) | – | – | – | – | – | > 164 µM
17 | CCCCCCCCCCCCCCCCCCOCC(O)CO (stereo unspecified) [BATILOL] | 10.7 µM (inactive) | 13.6 µM (inactive) | > 25 µM (inactive) | 3.61 µM (inactive) | – | > 25 µM (inactive) | 21.9 µM (inactive) | 15.5 µM (inactive) | 10.5 µM (inactive) | 21.6 µM (inactive) | > 17 µM (inactive) | 14 µM (inactive) | – | > 25 µM (inactive) | – | – | – | – | – | > 25 µM
18 | C[C@]12CCC(=O)C=C1CC[C@@H]1[C@@H]2[C@@H](O)C[C@@]2(C)[C@H]1CC[C@]2(O)C(=O)COC(=O)CCC1CCCC1 [HYDROCORTISONE CYPIONATE] | 95.9 µM (inactive) | > 100 µM (inactive) | > 100 µM (inactive) | > 100 µM (inactive) | – | > 100 µM (inactive) | – | > 100 µM (inactive) | 72.9 µM (inactive) | > 100 µM (inactive) | > 100 µM (inactive) | – | > 100 µM (inactive) | 0.0881 µM (active) | > 100 µM (inactive) | – | – | – | – | > 100 µM
